# Test results published in publication PMC13147323, “EGFR-Targeted and MMP-Activated Membranolytic Peptides Kill Cancer Cells Specifically In Vitro and Reduce Tumor Growth In Vivo” (Molecular Pharmaceutics, 2026).
# Residues, ends and D or L forms follow the SMILES beside them.
# Experiments:
# MCF-10A cells = assay type: cell-based, human; conditions: 24 h
# Procedure: (§1) MDA-MB-468, MDA-MB-231, BT-474, AU-565, HB2, and MCF-10A cells were procured from American Type Culture Collection (ATCC) and validated for lack of mycoplasma contamination (MycoAlert; Lonza, Basel, Switzerland) and identity (short tandem repeat profiling; Source Bioscience, Nottingham, UK). Cells (except MCF-10A) were cultured in Dulbecco’s modified Eagle medium (DMEM) supplemented with 10% (v/v) fetal calf serum (FCS) and 100 units/mL penicillin–streptomycin (Thermo Scientific; Waltham, MA, USA). MCF-10A was cultured in DMEM supplemented with 5% horse serum, 0.1 μg/mL cholera toxin, 0.5 μg/mL hydrocortisone, 0.02 μg/mL epidermal growth factor, and 100 units/mL penicillin–streptomycin (Thermo Scientific, Waltham, MA, USA). Cells were grown at 37 °C in a humidified incubator with 5% CO2. Cells were maintained and experiments were performed under conditions ensuring cell densities that supported exponential growth.
# (§2) Cells were seeded in 96-well plates at 1 × 10^4 cells/well in complete growth media and incubated for 18 h. Cells were then treated with peptides (0–250 μM) for up to 24 h. Cells were then incubated with 0.5 mg/mL MTT dissolved in PBS for 3 h. Formazan crystals were dissolved using […] of isopropanol and absorbance was measured at 570 nm on a microplate spectrophotometer (Biotech Instruments, USA). For spheroids assays, MDA-MB-468 or HB2 cells (1000 cells/well) were seeded in 250 μL of DMEM supplemented with 10% FCS and 2.5% Matrigel (Corning, New York, USA) in low-adherent, round-bottom 96-well plates (Corning, New York, USA). The plates were centrifuged at 360g for 10 min and subsequently incubated for 48 h to allow spheroid formation. MDA-MB-468 or HB2 spheroids were then treated with peptides at the IC50 doses determined for MDA-MB-468 cells for 24 h. Cellular viability within spheroids was assessed by staining with Hoechst 33342 (5 μg/mL) for 30 min, followed by propidium iodide (PI) (1.5 μg/mL) for 10 min. Red fluorescence indicated nonviable cells stained with PI, whereas blue fluorescence represented both viable and nonviable cells stained with Hoechst 33342. The survival of spheroids was determined by calculating ratios of blue/red fluorescence using ImageJ software.
# (§3) A panel of human breast epithelial cell lines was established, including two lines from a nontransformed origin (MCF-10A; HB2) and four cancer lines (BT-474; AU-565; MDA-MB-231; MDA-MB-468). Cells were treated with different doses of MP1 or the modified peptides. Survival was assessed relative to untreated using MTT assays (Figures and S2) and IC50 doses were determined for each peptide in each cell line.
# BT-474 cells = assay type: cell-based, human; conditions: 24 h
# Procedure: as §1, §2, §3
# HB2 cells = assay type: cell-based, human; conditions: 24 h
# Procedure: as §1, §2, §3
# MDA-MB-468 cells = assay type: cell-based, human; conditions: 24 h
# Procedure: as §1, §2, §3
# MDA-MB-231 cells = assay type: cell-based, human; conditions: 24 h
# Procedure: as §1, §2, §3
# AU-565 cells = assay type: cell-based, human; conditions: 24 h
# Procedure: as §1, §2, §3
# red blood cells = assay: Ex vivo hemolysis assay; assay type: cell-based; conditions: mouse RBCs 1:50 in PBS, three doses, 1 h, 37 °C, absorbance 540 nm
# Procedure: Blood was collected from five 10-week-old male C57BL/6 mice via cardiac puncture following cervical dislocation, using pediatric blood collection tubes containing K3 EDTA (Greiner; Slušovice, Czechia). Blood was centrifuged (500g; 5 min; 4 °C) and plasma was removed. Red blood cells (RBCs) were resuspended to their original volume using 150 mM NaCl. RBCs were repeatedly washed and diluted to 1:50 in PBS. For a positive control, 1% (v/v) Triton X-100 was used (100% lysis), while cells incubated in PBS served as a negative control (0% lysis). 200 μL of RBCs in triplicate was treated with peptides and incubated on an orbital shaker (100 rpm; 1 h; 37 °C). Samples were centrifuged (500g; 5 min) and supernatants, containing lysed RBCs, were collected. Hemolysis was quantified by measuring absorbance at 540 nm.
# Our next aim was to assess whether our various peptides had potential as anticancer therapeutics using an in vivo model. To our knowledge, MP1 or MP1-derived peptides have not previously been used experimentally in vivo, therefore we first performed an in vitro hemolysis assay to aid selection of peptides that could be suitable for intravenous delivery. Red blood cells were isolated from mouse blood and treated with three different doses of MP1 wildtype or our targeted peptides (EGFR and EGFR-MMP versions of both MP1 and D2K) and hemolysis was measured (Figure A).
# MDA-MB-468 xenografts = assay: MDA-MB-468 xenograft study in NCG mice; assay type: in vivo, mouse; conditions: 500 μg i.v. days 1, 3, 5, monitored 27 days, recovered by the end of the experiment
# Procedure: These were performed by HD Biosciences (Shanghai, China). Procedures related to handling, care, and treatment of animals were performed according to guidelines approved by the HD Biosciences Institutional Animal Care and Use Committee (reference number AUC105), under the criteria of the Association for Assessment and Accreditation of Laboratory Animal Care (AAALAC). Protocols and AAALAC accreditation were reviewed by the Animal Welfare and Ethical Review Committee at the University of Leeds and were approved (reference number THAWERC222707; date 28/7/2022). Protocols and data are reported in accordance with the ARRIVE guidelines (https://arriveguidelines.org/arrive-guidelines). Female NCG mice (6–8 weeks old) were purchased from GemPharmatech Ltd. (Nanjing, China). […] Two groups were used: control group (13 animals) and test group (7 animals); group sizes were not determined by power calculation due to lack of data on which this could be based. […] Tumor volumes were monitored using calipers, and body weight was monitored throughout the experiment; no animals were excluded. […]
# NCG immune-compromised female mice were implanted subcutaneously with MDA-MB-468 xenografts. […] Tumor size and animal weight were monitored every 2 to 3 days for a total of 27 days, after which animals were sacrificed and tumors were dissected and weighed. […]
smiles,measurement,setting,value
CC[C@H](C)[C@H](N)C(=O)N[C@@H](CC(=O)O)C(=O)N[C@@H](Cc1c[nH]c2ccccc12)C(=O)N[C@@H](CCCCN)C(=O)N[C@@H](CCCCN)C(=O)N[C@@H](CC(C)C)C(=O)N[C@@H](CC(C)C)C(=O)N[C@@H](CC(=O)O)C(=O)N[C@@H](C)C(=O)N[C@@H](C)C(=O)N[C@@H](CCCCN)C(=O)N[C@@H](CCC(N)=O)C(=O)N[C@H](C(=O)N[C@@H](CC(C)C)C(=O)NCC(=O)N1CCC[C@H]1C(=O)N[C@@H](CC(C)C)C(=O)NCC(=O)N[C@H](C(=O)N[C@@H](C)C(=O)NCC(=O)N[C@@H](CCC(N)=O)C(=O)N[C@@H](Cc1ccc(O)cc1)C(=O)N[C@@H](Cc1c[nH]cn1)C(=O)N[C@@H](Cc1c[nH]c2ccccc12)C(=O)N[C@@H](Cc1ccc(O)cc1)C(=O)NCC(=O)N[C@@H](Cc1ccc(O)cc1)C(=O)N[C@H](C(=O)N1CCC[C@H]1C(=O)N[C@@H](CCC(=O)O)C(=O)N[C@@H](CC(N)=O)C(=O)N[C@H](C(=O)N[C@H](C(=O)O)[C@@H](C)CC)C(C)C)[C@@H](C)O)[C@@H](C)CC)[C@@H](C)CC [EGFR-MMP-MP1] (H-IDWKKLLDAAKQILGPLGIAGQYHWYGYTPENVI-OH),IC50,MCF-10A cells,114 µM
same,IC50,BT-474 cells,116 µM
same,IC50,HB2 cells,92.4 µM
same,IC50,MDA-MB-468 cells,56.6 µM
same,selectivity index (IC50 noncancer line / IC50 cancer line),MDA-MB-468 cells,1.63
same,IC50,MDA-MB-231 cells,57.9 µM
same,IC50,AU-565 cells,105 µM
same,hemolysis (in words),red blood cells,low hemolysis at relevant doses
same,animal weights as surrogate for side-effects,MDA-MB-468 xenografts,slightly reduced
